# From patent publication US5324648A, “Substituted isocoumarins as serine protease inhibitors and anti-inflammatory agents” (Georgia Tech Research Corporation, priority 1992, dated 1994)
# Like-named read-outs stand apart in the source and are kept apart here.
# How the values were obtained:
# [1] = Activated partial thromboplastin time (APTT), human plasma
# [2] = target: human lung tryptase; assay: Inactivation rate of human lung tryptase; format: biochemical; details: pH 7.5, 25° C
# Summary of the method: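 Incubation method in 0.1M Hepes, 0.5M NaCl, pH 7.5, 8% Me2SO, 25° C; inhibitor added to enzyme, aliquots withdrawn over time for residual activity. Substrate ZArg-SBzl (0.07 mM) with 4,4'-dithiodipyridine (0.33 mM). kobs from ln(vt/vo) vs time plots.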
# [3] = system: T1, human Q-31 tryptase (Homo sapiens); assay: Inactivation rate of human Q-31 tryptase; format: biochemical; details: Table VII; pH 7.5, 25° C; [I] 3 to 500 μM; read-out: kobs/[I]
# T1 construct: human cytotoxic lymphocyte Q31 tryptase; endogenous in cells; host or cells: human cytotoxic lymphocyte Q31
# T1 sequence (P12544 29-262): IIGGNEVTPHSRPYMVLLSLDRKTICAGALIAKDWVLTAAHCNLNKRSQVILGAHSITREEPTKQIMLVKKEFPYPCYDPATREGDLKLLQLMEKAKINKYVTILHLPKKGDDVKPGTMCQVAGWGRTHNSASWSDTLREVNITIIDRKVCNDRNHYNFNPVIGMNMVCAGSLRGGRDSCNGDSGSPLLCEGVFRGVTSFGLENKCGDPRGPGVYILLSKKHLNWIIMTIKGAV
# Description: (§1) Inactivation rates of serine proteases by substituted isocoumarins were measured by the incubation method. An aliquot of inhibitor (25 or 50 μl) in Me2 SO was added to a buffered enzyme solution (0.01-2.3 μM) to initiate the inactivation. Aliquots (50 μl) were withdrawn at various intervals and the residual enzymatic activity was measured. Me2 SO concentration in the reaction mixture was 8-12% (v/v). 0.1 Hepes, 0.01M CaCl2, pH 7.5 buffer was utilized for trypsin and coagulation enzymes. 0.1M Hepes, 0.5M NaCl, pH 7.5 was utilized for other serine proteases. The inhibitor concentrations are shown in all the tables. Peptide thioesters or peptide nitroanilides with appropriate sequence were used as substrates for various serine proteases. All peptide thioester hydrolysis rates were measured with assay mixtures containing 4,4'-dithiodipyridine (ε324 =19800M^-1 cm^-1; Grasetti & Murray, Arch. Biochem. Biophys. 119, pp 41-49 (1967)). Peptide 4-nitroanilide nitroanilide hydrolysis was measured at 410 nm (ε410 =8800M^-1 cm^-1; Erlanger et al., Arch. Biochem. Biophys. 95, pp 271-278 (1961)). First order inactivation rate constant (kobs) were obtained from plots of ln (vt /vo) vs time, and the correlation coefficients were greater than 0.98.
# (§2) ^a Inactivation rates were measured at 0.1M Hepes, 0.01M CaCl2,
# (§3) pH 7.5, 8% Me2 SO and 25° C. by incubation method. ZArg-SBzl
# (§4) (74-85 μM) was used as the substrate to monitor the residual enzymatic
# [4] = target: T2, mouse granzyme A (Mus musculus, UniProt P11032); assay: Inactivation rate of mouse granzyme A; format: biochemical; details: Table VII; pH 7.5, 25° C; [I] 0.4 to 45 μM; read-out: kobs/[I]
# T2 construct: mouse cytotoxic lymphocyte granzyme A; endogenous in cells; host or cells: mouse cytotoxic lymphocytes
# T2 sequence (P11032 29-260): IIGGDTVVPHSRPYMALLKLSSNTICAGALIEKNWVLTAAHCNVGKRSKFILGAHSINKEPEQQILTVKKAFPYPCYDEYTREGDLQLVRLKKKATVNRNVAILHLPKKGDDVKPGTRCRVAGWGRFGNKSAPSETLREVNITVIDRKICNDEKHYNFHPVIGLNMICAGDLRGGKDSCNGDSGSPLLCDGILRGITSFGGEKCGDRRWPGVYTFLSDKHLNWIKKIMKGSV
# Description: as §1, §2, §3, §4
# [5] = target: sheep lung lymph tryptase; assay: Inactivation rate of sheep lung lymph tryptase; format: biochemical; details: Table III; pH 7.5, 25° C; [I] 10 to 460 μM
# Description: Inactivation rates of serine proteases by substituted isocoumarins were measured by the incubation method. An aliquot of inhibitor (25 or 50 μl) in Me2 SO was added to a buffered enzyme solution (0.01-2.3 μM) to initiate the inactivation. Aliquots (50 μl) were withdrawn at various intervals and the residual enzymatic activity was measured. […] 0.1 Hepes, 0.01M CaCl2, pH 7.5 buffer was utilized for trypsin and coagulation enzymes. […] The inhibitor concentrations are shown in all the tables. Peptide thioesters or peptide nitroanilides with appropriate sequence were used as substrates for various serine proteases.
# ^a Inactivation rates were measured at 0.1M Hepes, 0.5M NaCl, pH 7.5
# buffer, 8% Me2 SO and 25° C.
# [6] = Prothrombin time (PT), human plasma
# [7] = target: T3, rat skin tryptase (Rattus norvegicus, UniProt P27435); assay: Inactivation rate of rat skin tryptase; format: biochemical; details: pH 7.5, 25° C, read-out: kobs/[I]
# T3 construct: from tissue; host or cells: rat skin
# T3 sequence (P27435 29-273): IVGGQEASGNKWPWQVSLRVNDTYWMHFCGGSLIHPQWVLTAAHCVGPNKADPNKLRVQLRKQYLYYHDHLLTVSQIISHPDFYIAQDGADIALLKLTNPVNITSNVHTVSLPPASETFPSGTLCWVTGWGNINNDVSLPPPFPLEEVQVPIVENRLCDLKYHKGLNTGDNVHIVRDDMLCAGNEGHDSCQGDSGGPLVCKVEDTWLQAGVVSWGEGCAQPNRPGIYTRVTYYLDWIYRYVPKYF
# Summary of the method: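 Rat skin tryptase incubated with isocoumarin inhibitor in 25 mM phosphate, 0.5 M NaCl, 1 mM EDTA, pH 7.5, 8-9% Me2SO, 25 °C; aliquots withdrawn over time for residual activity on ZArg-SBzl (0.07 mM) with 4,4'-dithiodipyridine (0.33 mM). First-order kobs from ln(vt/vo) versus time.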
# [8] = target: recombinant human tissue plasminogen activator (Homo sapiens, UniProt P00750); assay: Inactivation rate of recombinant human tissue plasminogen activator; format: biochemical; details: pH 7.5, 25° C, read-out: kobs/[I]
# recombinant human tissue plasminogen activator, sequence (P00750 36-562): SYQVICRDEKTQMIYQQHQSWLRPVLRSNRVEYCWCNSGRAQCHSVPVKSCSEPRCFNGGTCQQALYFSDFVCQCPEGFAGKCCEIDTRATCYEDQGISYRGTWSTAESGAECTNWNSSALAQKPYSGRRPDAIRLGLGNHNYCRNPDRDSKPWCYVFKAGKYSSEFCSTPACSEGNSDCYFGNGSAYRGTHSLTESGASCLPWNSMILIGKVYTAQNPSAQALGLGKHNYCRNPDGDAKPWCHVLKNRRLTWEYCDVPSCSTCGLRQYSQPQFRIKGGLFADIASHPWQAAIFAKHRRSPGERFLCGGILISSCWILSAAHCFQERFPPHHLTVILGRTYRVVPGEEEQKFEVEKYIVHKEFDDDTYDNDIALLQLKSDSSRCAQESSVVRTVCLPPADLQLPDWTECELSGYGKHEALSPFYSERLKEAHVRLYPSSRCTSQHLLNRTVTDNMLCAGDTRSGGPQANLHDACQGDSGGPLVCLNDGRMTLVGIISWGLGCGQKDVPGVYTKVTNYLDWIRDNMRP
# Summary of the method: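 Incubation method: enzyme mixed with inhibitor in Me2SO (8–12% v/v) in 0.1M Hepes, 0.5M NaCl, pH 7.5; aliquots withdrawn over time for residual activity with ZArg-SBzl (0.07 mM) plus 4,4'-dithiodipyridine (0.33 mM). kobs taken from ln(vt/vo) versus time plots.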
# [9] = target: T4, human factor XIa (Homo sapiens, UniProt P03951); assay: Inactivation rate of human factor XIa; format: biochemical; details: pH 7.5, 25° C, read-out: kobs/[I]
# T4 construct: human factor XIa
# T4 sequence (P03951 388-625 limits assumed): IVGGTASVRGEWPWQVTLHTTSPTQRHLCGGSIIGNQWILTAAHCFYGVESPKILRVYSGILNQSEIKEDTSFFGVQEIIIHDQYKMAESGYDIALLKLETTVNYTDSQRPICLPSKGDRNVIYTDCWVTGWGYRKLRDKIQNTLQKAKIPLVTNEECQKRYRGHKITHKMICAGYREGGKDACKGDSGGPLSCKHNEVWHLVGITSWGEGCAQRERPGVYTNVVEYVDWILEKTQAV
# T4 sequence (P03951 19-387 partner limits assumed): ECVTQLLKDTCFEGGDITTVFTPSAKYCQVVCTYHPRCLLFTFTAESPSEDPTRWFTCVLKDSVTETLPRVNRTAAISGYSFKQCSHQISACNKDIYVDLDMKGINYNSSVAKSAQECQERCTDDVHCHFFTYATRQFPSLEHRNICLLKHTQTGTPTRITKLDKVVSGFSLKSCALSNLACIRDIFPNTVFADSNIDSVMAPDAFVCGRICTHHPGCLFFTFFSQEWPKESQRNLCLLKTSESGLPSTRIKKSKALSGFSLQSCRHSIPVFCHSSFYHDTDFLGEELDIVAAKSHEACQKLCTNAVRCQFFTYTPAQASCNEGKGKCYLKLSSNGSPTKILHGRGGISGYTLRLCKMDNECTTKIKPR
# Description: as §1
# ^a Conditions were as 0.1M Hepes, 0.01M CaCl2, pH 7.5 and 8-12%
# Me2 SO and 25° C. Rate constants were measured by incubation
# method unless otherwise noted. An aliquot of inhibitor was added to an
# enzyme solution and aliquots removed with time and assayed for remaining
# enzymatic activity. Firstorder rate constants, kobs were obtained
# from the plots of ln(vt /vo) versus time.
# ^a Inhibition rates were measured in 0.1M Hepes, 0.01M CaCl2, pH
# 7.5 buffer, 8% Me2 SO and at 25° C.
# [10] = target: T5, porcine pancreatic elastase (PPE) (Sus scrofa, UniProt P00772); assay: Inactivation of porcine pancreatic elastase (PPE); format: biochemical; details: pH 7.5, 25° C, read-out: kobs/[I]
# T5 construct: from tissue; host or cells: porcine pancreas (from the name)
# T5 sequence (P00772 27-266): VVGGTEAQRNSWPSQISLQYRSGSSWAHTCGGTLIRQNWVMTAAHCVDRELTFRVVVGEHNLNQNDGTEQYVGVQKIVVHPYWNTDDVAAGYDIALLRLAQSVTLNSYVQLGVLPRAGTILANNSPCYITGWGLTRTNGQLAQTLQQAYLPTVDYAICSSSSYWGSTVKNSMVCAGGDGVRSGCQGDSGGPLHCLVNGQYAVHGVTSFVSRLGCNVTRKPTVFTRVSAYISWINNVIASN
# Description: Inactivation rates of serine proteases by substituted isocoumarins were measured by the incubation method. An aliquot of inhibitor (25 or 50 μl) in Me2 SO was added to a buffered enzyme solution (0.01-2.3 μM) to initiate the inactivation. Aliquots (50 μl) were withdrawn at various intervals and the residual enzymatic activity was measured. Me2 SO concentration in the reaction mixture was 8-12% (v/v). 0.1 Hepes, 0.01M CaCl2, pH 7.5 buffer was utilized for trypsin and coagulation enzymes. 0.1M Hepes, 0.5M NaCl, pH 7.5 was utilized for other serine proteases. […] Peptide thioesters or peptide nitroanilides with appropriate sequence were used as substrates for various serine proteases. All peptide thioester hydrolysis rates were measured with assay mixtures containing 4,4'-dithiodipyridine (ε324 =19800M^-1 cm^-1 ; Grasetti & Murray, Arch. Biochem. Biophys. 119, pp 41-49 (1967)). Peptide 4-nitroanilide nitroanilide hydrolysis was measured at 410 nm (ε410 =8800M^-1 cm^-1 ; Erlanger et al., Arch. Biochem. Biophys. 95, pp 271-278 (1961)). First order inactivation rate constant (kobs) were obtained from plots of ln (vt /vo) vs time, and the correlation coefficients were greater than 0.98.
# ^a Inactivation rates were measured at 0.1M Hepes, 0.5 NaCl, pH 7.5,
# 8-12% Me2 SO and 25° C. by incubation method.
# ^a Inhibition rates were measured in 0.1M Hepes, 0.05M NaCl, pH 7.5
# buffer, 8-9% Me2 SO and at 25° C.
# ^a Inhibition constants were in 0.1M Hepes, 0.5M NaCl, pH 7.5 buffer,
# 8-9% Me2 SO and at 25° C.
# ^a Inhibition rates were measured in 0.1M Hepes, 0.5M NaCl, 2.5%
# Me2 SO, pH 7,5 and at 25° C.
# ^a Inhibition was measured in 0.1M Hepes, 0.5M NaCl, pH 7.5 buffer,
# 5-10% Me2 SO and at 25° C. Suc--Val--Pro--Phe--NA (0.48 mM)
# was used as the substrate for chymotrypsin and cat G.
# ^a Inhibition rates were measured in 0.1M Hepes, 0.5M NaCl, pH 7.5
# [11] = target: T6, porcine pancreatic kallikrein (Sus scrofa, UniProt P00752); assay: Inactivation rate of porcine pancreatic kallikrein; format: biochemical; details: Table I, read-out: kobs/[I]
# T6 construct: from tissue; host or cells: porcine pancreas (from the name)
# T6 sequence (P00752 8-246): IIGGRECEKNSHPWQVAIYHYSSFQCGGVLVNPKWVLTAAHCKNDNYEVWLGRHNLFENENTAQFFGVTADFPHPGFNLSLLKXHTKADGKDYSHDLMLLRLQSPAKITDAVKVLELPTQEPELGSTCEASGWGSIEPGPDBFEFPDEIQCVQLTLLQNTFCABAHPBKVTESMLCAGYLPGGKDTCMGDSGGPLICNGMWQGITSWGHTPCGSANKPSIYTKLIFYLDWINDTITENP
# [12] = target: chymotrypsin (Bos taurus, UniProt P00766); assay: Inactivation of chymotrypsin; format: biochemical, bovine; details: pH 7.5, 25° C, read-out: kobs/[I]
# [13] = target: T7, human plasmin (Homo sapiens, UniProt P00747); assay: Inactivation rate of human plasmin; format: biochemical; details: read-out: kobs/[I]
# T7 construct: human plasmin; from tissue; host or cells: human plasma
# T7 sequence (P00747 581-810 limits assumed): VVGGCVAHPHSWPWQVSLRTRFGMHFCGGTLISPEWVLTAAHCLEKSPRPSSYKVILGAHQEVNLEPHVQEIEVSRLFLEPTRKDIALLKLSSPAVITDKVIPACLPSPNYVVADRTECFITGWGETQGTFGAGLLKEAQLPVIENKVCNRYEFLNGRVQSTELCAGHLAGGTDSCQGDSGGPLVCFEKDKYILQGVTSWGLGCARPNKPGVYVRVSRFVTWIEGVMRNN
# T7 sequence (P00747 97-580 partner limits assumed): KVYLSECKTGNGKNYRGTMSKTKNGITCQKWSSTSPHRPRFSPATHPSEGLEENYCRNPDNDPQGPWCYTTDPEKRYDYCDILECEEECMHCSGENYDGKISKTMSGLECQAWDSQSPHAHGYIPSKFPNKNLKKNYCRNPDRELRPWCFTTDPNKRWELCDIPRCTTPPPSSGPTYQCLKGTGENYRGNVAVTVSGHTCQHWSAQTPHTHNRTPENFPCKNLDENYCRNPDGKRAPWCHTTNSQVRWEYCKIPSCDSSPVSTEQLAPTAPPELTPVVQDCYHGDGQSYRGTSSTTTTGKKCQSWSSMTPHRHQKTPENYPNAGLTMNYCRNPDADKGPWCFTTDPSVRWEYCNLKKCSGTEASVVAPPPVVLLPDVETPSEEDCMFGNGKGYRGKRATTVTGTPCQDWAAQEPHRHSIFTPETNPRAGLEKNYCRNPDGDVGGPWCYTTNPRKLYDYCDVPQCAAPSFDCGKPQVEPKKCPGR
# [14] = pH 7.5, Table III, 25 mM phosphate, [I] 0.4 to 50 μM
# [15] = pH 7.5, Table VI, [I] 7 to 44 μM
# [16] = pH 7.5, 25° C, [I] 0.4 to 300 μM
# [17] = Table VI, pH 7.5, 25° C, [I] 4 to 330 μM
# [18] = pH 7.5, same concentration of enzyme and inhibitor
# [19] = pH 7.5, Table IX, [I] 0.42-0.51 μM
# [20] = pH 7.5, Table IX, [I] 3.5-5.0 μM
SMILES,"kobs/[I] ([2]; Table III, [I] 0.4 to 50 μM)",kinact/KI [3] [M⁻¹ s⁻¹],kinact/KI [4] [M⁻¹ s⁻¹],kobs/[I] [5],"kinact/KI [7, 14] [M⁻¹ s⁻¹]","kinact/KI [8, 15] [M⁻¹ s⁻¹]","kinact/KI ([9]; Table I, [I] 3 to 330 μM) [M⁻¹ s⁻¹]","kinact/KI ([10]; Table IV, [I] 0.01 to 0.51 mM) [M⁻¹ s⁻¹]","kinact/KI [11, 16] [M⁻¹ s⁻¹]","kinact/KI ([12]; Table IV, [I] 0.004 to 0.33 mM) [M⁻¹ s⁻¹]","kinact/KI [13, 17] [M⁻¹ s⁻¹]","kinact/KI [11, 18] [M⁻¹ s⁻¹]",other results
"O=c1oc(Cl)c(Cl)c2ccccc12 [3,4-dichloroisocoumarin, reference compound]",185 M⁻¹ s⁻¹,29,50,39 M⁻¹ s⁻¹,610,73,–,–,–,–,–,–,APTT ([1]; [I] 33 μM): 26.6 s; APTT ([1]; [I] 45 μM): 26.0 s; PT ([6]; [I] 33 μM): 12.4 s
N=C(N)SCCOc1oc(=O)c2ccccc2c1Cl [3-(2-isothiureidoethoxy)-4-chloroisocoumarin],–,–,–,290 M⁻¹ s⁻¹,–,–,44000,270,12000,1300,–,–,–
NCCCOc1oc(=O)c2ccccc2c1Cl [3-(3-aminopropoxy)-4-chloroisocoumarin],"2,000 M^-1 s^-1",–,770,18 M⁻¹ s⁻¹,8370,94,380,70,860,580,770,–,–
N=C(N)SCCCOc1oc(=O)c2ccccc2c1Cl [3-(3-isothiureidopropoxy)-4-chloroisocoumarin],"64,000 M^-1 s^-1",12800,17500,230 M⁻¹ s⁻¹,53000,4690,47000,70,19000,1700,–,–,APTT ([1]; [I] 31 μM): 25.8 s; PT ([6]; [I] 31 μM): 12.3 s
N=C(N)SCCCOc1oc(=O)c2cc(N)ccc2c1Cl [7-amino-4-chloro-3-(3-isothiureidopropoxy)isocoumarin],"28,000 M^-1 s^-1",1960,3000,710 M⁻¹ s⁻¹,63000,5690,22000,1,–,1600,4340,> 110000,"APTT ([1]; [I] 2.9 μM): 100.8 s; APTT ([1]; [I] 29 μM): > 120 s; kobs/[I] ([2]; Table IX, [I] 0.42-0.47 μM): 19,000 M^-1 s^-1; PT ([6]; [I] 29 μM): 19.4 s; kinact/KI [7, 19]: 39000 M⁻¹ s⁻¹; kinact/KI [8, 20]: 13000 M⁻¹ s⁻¹"
"CCOc1oc(=O)c2cc(NC(=N)N)ccc2c1Cl [7-guanidino-3-ethoxy-4-chloroisocoumarin, 7-guanidino-4-chloro-3-ethoxyisocoumarin]","61,000 M^-1 s^-1",6180,26200,"2,200 M^-1 s^-1",82000,7720,60000,2300,–,37000,12300,> 200000,APTT ([1]; [I] 4.3 μM): 74.8 s; APTT ([1]; [I] 21 μM): > 120 s; APTT ([1]; [I] 53 μM): > 120 s; APTT ([1]; [I] 107 μM): > 120 s; PT ([6]; [I] 21 μM): 22.4 s; PT ([6]; [I] 53 μM): 31.4 s; PT ([6]; [I] 75 μM): 44.2 s; PT ([6]; [I] 107 μM): 80 s
COc1cc2ccc(NC(=N)N)cc2c(=O)o1 [7-guanidino-3-methoxyisocoumarin],–,–,–,53 M⁻¹ s⁻¹,–,–,1400,55,1900,270,320,–,–
N=C(N)Nc1ccc2c(Cl)c(OCCc3ccccc3)oc(=O)c2c1 [7-guanidino-4-chloro-3-(2-phenylethoxy)isocoumarin],"56,000 M^-1 s^-1",1880,6400,"3,900 M^-1 s^-1",86000,6780,20000,5.7,–,38000,4140,200000,APTT ([1]; [I] 27 μM): 57.3 s; PT ([6]; [I] 27 μM): 13.0 s
COc1oc(=O)c2cc(NC(=N)N)ccc2c1Cl [7-guanidino-4-chloro-3-methoxyisocoumarin],"20,000 M^-1 s^-1",6620,15000,620 M⁻¹ s⁻¹,52000,4420,36200,860,–,7200,3500,–,"APTT ([1]; [I] 21 μM): 83.8 s; kinact/KI ([11]; pH 7.5, progress curve method): 45000 M⁻¹ s⁻¹; PT ([6]; [I] 21 μM): 16.5 s"
"N=C(N)SCCOc1oc(=O)c2cc(NC(=O)Nc3ccccc3)ccc2c1Cl [PhNHCONH-CiTEtOIC, 7-(phenylcarbamoylamino)-4-chloro-3-(2-isothiureidoethoxy)isocoumarin]",–,–,–,–,–,–,–,–,–,–,–,–,"kinact/KI ([9]; Table VIII, [I] 0.7-0.8 μM): 104000 M⁻¹ s⁻¹; kobs/[I] ([2]; Table IX, [I] 0.42-0.47 μM): 170,000 M^-1 s^-1; kinact/KI ([10]; Table X, [I] 33-46 μM): 840 M⁻¹ s⁻¹; kinact/KI ([13]; Table IX, 0.01M CaCl2, pH 7.5, 25° C, [I] 8.3-41 μM): 32000 M⁻¹ s⁻¹; kinact/KI [7, 19]: 170000 M⁻¹ s⁻¹; kinact/KI [8, 20]: 16000 M⁻¹ s⁻¹; kinact/KI ([12]; Table X, [I] 0.9-43 μM): 16000 M⁻¹ s⁻¹"
